Assay [1] concerns isolated human neutrophils. In words: Co-culture of bacteria and isolated human neutrophils, confocal specificity. The class given is cell-based. The source says: Neutrophil Isolation: Neutrophils for in vitro experiments were isolated from peripheral venous blood of healthy human volunteers (Ethical approval was obtained from the Lothian Research Ethics Committee). Blood was anticoagulated with sodium citrate (0.38% final concentration) and polymorphonuclear leukocytes were isolated via dextran sedimentation followed by centrifugation through discontinuous plasma-Percoll gradients, as previously described. S4 […]
(§1) Confocal Analysis and Fluorescence Quantification: 8-Well Lab-Tek II Confocal Chambers (VWR, PA, USA) were coated in fibronectin (for neutrophil experiments) or poly-d-lysine (for bacteria) at 37 °C for 20 minutes, then washed in PBS prior to bacterial innoculation. For co-culture assays, neutrophils were seeded on fibronectin coated wells at 1 x 10^5 neutrophils per well for 20 minutes and non-adherent neutrophils aspirated. Bacteria were added to each chamber to a final concentration of 0.5 OD595 nm with the desired final concentration of Smartprobe. A laser-scanning confocal imaging system (LSM510; Carl Zeiss, Jena, Germany), incorporating an upright Axioskop FS2 microscope (63× objective) was used for image acquisition and processing. Exposure to 488 nm light was limited to 5% of the maximum laser power in order to minimize toxicity. ‘Green’ fluorescence (for FAM and NBD) was excited with a dedicated 488 nm line and emitted light detected with meta detector (500-530 nM).
(§2) Syto nuclear and dyes were excited with a dedicated 543 nm line, and emitted light detected with meta detector (570-610 nM). Fields of view were chosen based on the counterstain and at least three fields of view were recorded for each condition. For affinity assays, following initial imaging, the fluid was aspirated and two gentle washes with PBS were performed. The chamber was re-imaged on confocal.
Analysis was with ImageJ (version 1.46r, National Institutes of Health, USA); the Syto channel was automatically thresholded (MaxEntropy, with a set threshold 0-47) and an ROI generated from this. The

Assay [2] deals with Methicillin sensitive S. aureus, K. pneumoniae and P. aeruginosa. As to the kind of experiment: Bacterial affinity: fluorescence retention following a PBS wash (confocal). The class given is cell-based. Conditions: 10 µM, two gentle PBS washes, three bacterial species, n=3. The protocol:
Three compounds (UBI-3, UBI-5 and UBI-10) were assessed for further evaluation. […] In vitro affinity of bacterial binding was assessed by incorporating a wash step in the live confocal imaging protocol with a panel of bacteria with the ‘wash-off’ representing a surrogate indicator of Smartprobe-bacterial labelling affinity. […] UBI-10, therefore, was assessed further in a clinically relevant biological system.
Figure S4. Quantified fluorescence of confocal microscopy images of the compounds UBI-3, UBI-5 and UBI-10 on three bacteria and fluorescence retention following a PBS wash. Quantification of fluorescence intensity of (A) Methicillin sensitive S. aureus, (B) K. pneumoniae and (C) and P. […]
intensity following a PBS wash. […]
as §1, §2
(§3) Analysis was with ImageJ (version 1.46r, National Institutes of Health, USA); the Syto channel was automatically thresholded (MaxEntropy, with a set threshold 0-47) and an ROI generated from this. The […]
(§4) mean fluorescence intensity on the probe channel within this ROI was quantified. Data presented represents the mean of three experiments, from each of which three separate fields of view were assessed. All experiments were performed at least three times unless otherwise stated and results expressed as mean ± SEM. Data was analysed by unpaired t-test and significance was determined as p<0.05 (GraphPad Prism version 5.01 for Windows, GraphPad Software, San Diego California USA).
Ex vivo Human Lung and FCFM Procedure: Human lung samples were obtained from patients undergoing surgical resection for lung carcinoma. All images were obtained on sections of normal lung away from the cancerous growth. Informed consent was obtained and the study was approved by the Regional Ethics Committee. Samples were taken fresh from the operating theatre, dissected into 4mm sections and placed in wells of 96 well plate. Bacteria were pre-labelled with Smartprobe or Calcein AM and co-cultured in the well with a maximum volume of 100µl. […]

The test system of assay [3] is bacteria in ex vivo human lung tissue. As to the kind of experiment: Fibered confocal fluorescence microscopy (FCFM) of labelled bacteria on ex vivo human lung tissue. The settings on record: 10 μM, bacteria pre-labelled, 488 nm FCFM, n = 3. As for the experimental part: Since NBD is also excited at 488 nm, the utility and detection of the Smartprobes with FCFM was next evaluated. […] These were then delivered onto ex vivo human lung tissue fragments.
Fig. 10 UBI-10 can be used to image bacteria in ex vivo human lung tissue by fibered confocal fluorescence microscopy (FCFM). FCFM imaging of bacteria in suspension (upper panels) or when co-incubated with ex vivo human lung tissue (lower panels). […] All compounds at 10 μM, n = 3. […]
as §4
Ex vivo Human Lung and FCFM Procedure: Human lung samples were obtained from patients undergoing surgical resection for lung carcinoma. All images were obtained on sections of normal lung away from the cancerous growth. Informed consent was obtained and the study was approved by the Regional Ethics Committee. Samples were taken fresh from the operating theatre, dissected into 4mm sections and placed in wells of 96 well plate. […]

Assay [4] deals with methicillin-sensitive Staphylococcus aureus. As to the kind of experiment: Confocal labelling of MSSA with quantified fluorescence. It is filed as cell-based. As for the experimental part:
Fig. 6 Confocal Images of compounds UBI-3 to 9 with quantified fluorescence. Panels show methicillin-sensitive Staphylococcus aureus incubated with UBI-3 to 9 (all 10 μM) with quantification of bacterial fluorescence normalized to UBI-3 (bars represent mean (±SEM), n ≥ 3, ns = not significant, *** = p < 0.001, * = p < 0.05, scale bar = 10 μm).
Fig. 8 Confocal images and quantification of cyclic variants when compared to UBI-3. Panels show methicillin-sensitive Staphylococcus aureus incubated with cyclic UBI compounds (all 10 μM) with quantification of bacterial fluorescence normalized to UBI-3 (bars represent mean (±SEM), n ≥ 3, ns = not significant, ** = p < 0.01, scale bar = 10 μm).
Bacterial Culture and Labelling: Bacteria used were K. pneumoniae (ATCC BAA1706) ATCC, E. coli (ATCC 25922) ATCC, A. baumannii (J3433) Clinical Isolate, P. aeruginosa (J3284) Clinical Isolate, Methicillin Resistant S. aureus (MRSA) (ATCC25923) ATCC and Methicillin Sensitive S. aureus (MSSA) (ATCC 252) ATCC. All bacteria were grown on Lysogeny broth (LB) agar and from a single bacterial colony placed into 10ml of LB and incubated at 37°C for 16 hours in an orbital shaker.
Cultures were centrifuged at 4000rpm for 5 minutes and the pellet resuspended in 1ml phosphate buffered saline (PBS, Life Technologies). Following three further washes in PBS the cultures were reconstituted to 1 OD595 nm. Bacteria were counterstained with 5µM Syto 82 orange fluorescent nucleic acid stain (Invitrogen, CA, USA) in a shaking heat block at 37 °C for 20 minutes. For FCFM bacteria were stained with 1µM Calcein AM (Sigma, MO, USA) for 30 minutes at 37 °C. Counterstained bacteria were washed in PBS to remove excess dye. […]
as §1, §2, §3, §4
Ex vivo Human Lung and FCFM Procedure: Human lung samples were obtained from patients undergoing surgical resection for lung carcinoma. All images were obtained on sections of normal lung […]

[5] abbreviates: 0.5 μM to 50 μM, methicillin sensitive S. aureus.

Molecules are shown by their SMILES. “Also recorded” adds a separate entry of the source. Non-standard residues stand in square brackets, D forms with d. Residues, ends and D or L forms follow the SMILES beside them. *: point of attachment. NBD = O=[N+]([O-])c1ccc(*)c2nonc12; Nle = CCCC[C@H](N)C(=O)O; Ahx = NCCCCCC(=O)O

On to `CCCC[C@H](NC(=O)[C@H](CCCNC(=N)N)NC(=O)[C@H](CCCNC(=N)N)NC(=O)[C@H](CCCCN)NC(=O)[C@H](C)NC(=O)[C@H](CCCNC(=N)N)NC(=O)CNC(=O)[C@@H](NC(=O)CCCCCNc1ccc([N+](=O)[O-])c2nonc12)[C@@H](C)O)C(=O)N[C@@H](CCC(N)=O)C(=O)N[C@@H](Cc1ccc(O)cc1)C(=O)N[C@@H](CC(N)=O)C(=O)N[C@@H](CCCNC(=N)N)C(=O)N[C@@H](CCCNC(=N)N)C(N)=O` [UBI-3] ({NBD-Ahx}-TGRAKRR[Nle]QYNRR-NH2), for which the “labelling of neutrophils vs bacteria” value in assay [1] (bacteria with isolated human neutrophils, confocal) is “labels bacteria but not isolated human neutrophils”. For the same compound, in assay [2], the “fluorescence following labelling and a PBS wash” value is reported as “significantly lower fluorescence”. In addition, in assay [3], the “detection of labelled bacteria by FCFM on ex vivo human lung tissue” value is listed as “immediately lost their fluorescent signal; also recorded: can image bacteria in suspension but not in the presence of ex vivo human lung”. Also, in assay [4] (setting [5]), the “concentration dependence of bacterial labelling” value is recorded as “concentration dependent manner; also recorded: concentration dependent increase in bacterial fluorescence”.

On to `CCCC[C@@H]1NC(=O)[C@H](CCCNC(=N)N)NC(=O)[C@H](CCCNC(=N)N)NC(=O)[C@H](CCCCN)NC(=O)[C@H](C)NC(=O)[C@H](CCCNC(=N)N)NC(=O)CNC(=O)[C@H]([C@@H](C)O)NC(=O)[C@@H](NC(=O)CCCCCNc2ccc([N+](=O)[O-])c3nonc23)CCCCNC(=O)CNC(=O)[C@H](CCCNC(=N)N)NC(=O)[C@H](CCCNC(=N)N)NC(=O)[C@H](CC(N)=O)NC(=O)[C@H](Cc2ccc(O)cc2)NC(=O)[C@H](CCC(N)=O)NC1=O` [UBI-10], for which, in assay [1] (co-culture of isolated human neutrophils and methicillin sensitive S. aureus, 10 μM), the “labelling of neutrophils at 10 μM” value is listed as “retained bacterial specificity over neutrophils; also recorded: no labelling of neutrophils”. Further, the “labelling of neutrophils at 50 μM” value in assay [1] (co-culture of isolated human neutrophils and methicillin sensitive S. aureus, 50 μM) is reported as “some neutrophil labelling was observed; also recorded: occasional neutrophil labelling was observed”. Further, the “fluorescence following labelling and a PBS wash” value in assay [2] is on record as “retains a significant fluorescence intensity”. Moreover, in assay [3], the “detection of labelled bacteria by FCFM on ex vivo human lung tissue” value is given as “readily identified above elastin autofluorescence; also recorded: can image bacteria by FCFM in the presence of ex vivo human lung”. For the same compound, in assay [4] (setting [5]), the “concentration dependence of bacterial labelling” value is “concentration dependent manner; also recorded: concentration dependent increase in bacterial fluorescence” and the “relative fluorescence of labelled bacteria compared with the other compounds” value was “higher than UBI-3 or UBI-5 labelled bacteria; also recorded: higher fluorescence (per molar equivalents) at all concentrations tested”. The “bacterial labelling (fluorescence compared with UBI-3)” value in assay [4] (MSSA, 10 μM, fluorescence normalized to UBI-3, mean ± SEM, n ≥ 3) is “significantly higher signal; also recorded: improved bacterial labelling”.

The record behind these values is PMC5947527 (Chemical Science, 2015).
